Results: patent US8673943B2, “Fluorinated derivatives of deferiprone” (Apotex Technologies Inc., priority 2007, dated 2014)

Tests used:
[1] = Chemical stability studies in aqueous media, monitored by HPLC; type: physicochemical; conditions: for stability in 50 mM phosphate buffer at pH 7.4 or aqueous 0.01 N NaOH: HPLC Method 1; for stability in aqueous 0.01 N HCl and de-ionized water at pH 5.6: freshly prepared solutions
Procedure: (2) de-ionized water at pH 5.6;
(3) 50 mM phosphate buffer at pH 7.4; and […]

[2] = In vivo pharmacokinetic (PK) and blood brain barrier (BBB) studies, cassette dosing; set-up: species or system male Sprague-Dawley rats; conditions: tail vein injection, rat; for AUC brain* / AUC: normalized to 2 mg/kg dose; for Kp at 5 min / Kp / AUC: male, Sprague-Dawley; for Kp at 5 min / Kp: brain/plasma, intravenous; for Kp at 5 min: read-out: Brain/Plasma ratio at 5 min; for Kp: read-out: AUC brain/AUC plasma; for AUC: iv, plasma
Procedure: In vivo pharmacokinetic (PK) and blood brain barrier (BBB) studies were conducted in male Sprague-Dawley rats using cassette dosing. The topic of cassette dosing has been reviewed by Manitpisitkul, P. and White, R. E. (August 2004), Drug Discovery, Vol 9. No. 15, pp. 652-658. The mode of administration was through tail vein injection.

[3] = prior-art / published chelators; 1×10^−5 M chelator and 1×10^−6 M Fe(III); cited from earlier work
[4] = type: physicochemical
Text: The term “log kBMC” refers to the logarithm of the chromatographic capacity factor (reference retention time) in BMC, a special type of HPLC (Escuder-Gilabert, L., et al., Journal of Chromatography B, 2004, 807, 193-201). This analytical technique was used to correlate the log kBMC of 31 reference drug substances with known experimentally determined log BB values. A linear regression mathematical equation log BB=a(log kBMC)+b was obtained from these reference drug substances wherein a and b are constants. The log kBMC of the compounds of the present invention was measured by BMC. The experimental log kBMC of the compounds of the present invention was fit into the log BB=a(log KBMC) b equation to obtain a calculated log BB value. The calculated log BB is an indicator of the BBB penetration property of the compounds of the present invention.
FIG. 1 provides a table illustrating the physical properties of selected compounds of formula (I) according to the present invention. […] The chromatographic capacity factor kBMC of 31 reference drug substances with known experimentally determined log BB values were recorded (FIGS. 2 and 3). […] We used the above equation to compute a calculated log BB value of the compounds of the present invention as an estimate of the BBB penetration properties of the compounds. Deferiprone is known to penetrate the BBB and has a calculated log BB value of −1.05. […]

[5] = pH 7.4; cited from earlier work

Cn1cc(O)c(=O)cc1CF [(D)]
stability in aqueous solution [1]: unstable

Cc1cc(=O)c(O)c(C(F)F)n1C [(iv), 2-difluoromethyl-3-hydroxy-1,6-dimethyl-1H-pyridin-4-one]
stability in 50 mM phosphate buffer at pH 7.4 or aqueous 0.01 N NaOH [1]: almost instantaneously hydrolysed to their corresponding aldehydes
stability in aqueous 0.01 N HCl and de-ionized water at pH 5.6 [1]: stable

Cn1ccc(=O)c(O)c1C(F)F [(v), 2-difluoromethyl-3-hydroxy-1-methyl-1H-pyridin-4-one]
stability in 50 mM phosphate buffer at pH 7.4 or aqueous 0.01 N NaOH [1]: almost instantaneously hydrolysed to their corresponding aldehydes
stability in aqueous 0.01 N HCl and de-ionized water at pH 5.6 [1]: stable
stability in pH 7.4 phosphate buffer and 0.01 M sodium hydroxide [1]: unstable

Cc1cc(=O)c(O)c(C(O)C(F)(F)F)n1C (stereo not drawn) [Apo6729, 3-hydroxy-1,6-dimethyl-2-(2,2,2-trifluoro-1-hydroxy-ethyl)-1H-pyridin-4-one]
time stable in 0.1N HCl, 50 mM phosphate buffer pH 7.4 and 0.1 N NaOH ([1]; 0.1N HCl, 50 mM phosphate buffer at pH 7.4, 0.1 N NaOH, room temperature): at least 21 hrs

Cn1ccc(=O)c(O)c1CC(F)(F)F [Apo6825, 3-hydroxy-1-methyl-2-(2,2,2-trifluoro-ethyl)-1H-pyridin-4-one]
AUC brain* [2]: 2730 ng·h/mL
Kp at 5 min [2]: 0.46
Kp [2]: 0.6
AUC [2]: 4520 ng·h/mL
Kα [2]: 0.68 h⁻¹
Kβ [2]: 0.133 h⁻¹
t1/2α [2]: 1.02 h
t1/2β [2]: 5.21 h

Cc1c(O)c(=O)c(CC(F)(F)F)cn1C [Apo6855, 3-Hydroxy-1,2-dimethyl-5-(2,2,2-trifluoro-ethyl)-1H-pyridin-4-one]
AUC brain* [2]: 580 ng·h/mL
Kp at 5 min [2]: 0.5
Kp [2]: 0.65
AUC [2]: 890 ng·h/mL
Kα [2]: 2.37 h⁻¹
Kβ [2]: 0.136 h⁻¹
t1/2α [2]: 0.29 h
t1/2β [2]: 5.10 h

CNC(=O)c1c(O)c(=O)cc(C)n1C [CP502]
pFe(III) / pFe^3+ [3]: 21

Cc1c(O)c(=O)ccn1C [Deferiprone, 3-hydroxy-1,2-dimethyl-1H-pyridin-4-one]
calculated log BB [4]: −1.05
AUC brain* [2]: 860 ng·h/mL
Kp at 5 min [2]: 0.45
Kp [2]: 0.79
AUC [2]: 1080 ng·h/mL
Kα [2]: 1.36 h⁻¹
Kβ [2]: 0.215 h⁻¹
t1/2α [2]: 0.51 h
t1/2β [2]: 3.22 h
distribution coefficient [5]: 0.17

Cc1cc(=O)c(O)c(CF)n1C [compound (C)]
stability in aqueous solution [1]: unstable

Cn1cc(O)c(=O)cc1CF [compound (vii), 2-fluoromethyl-5-hydroxy-1-methyl-1H-pyridin-4-one]
fraction of compound remaining ([1]; 50 mM phosphate buffer at pH 7.4, after 5 hrs): about half
time stable in MeOH ([1]; MeOH): at least 4 hrs
stability in aqueous 0.01 N NaOH ([1]; aqueous 0.01 N NaOH): decomposed rapidly
stability in pH 7.4 phosphate buffer and 0.01 M sodium hydroxide [1]: unstable
